In patent publication US20230092890A1, “1, 3, 4-Oxadiazole derivative compounds as histone deacetylase 6 inhibitor, and the pharmaceutical composition comprising the same” (Chong Kun Dang Pharmaceutical Corp., priority 2019, published 2023):

What was measured:
HDAC1 = biological target: T1, HDAC1 (Homo sapiens, UniProt Q13547); assay: HDAC enzyme activity inhibition (in vitro), HDAC1 Fluorimetric Drug Discovery Assay Kit; type: biochemical; settings: samples at 100, 1000 and 10000 nM; 37° C. 60 minutes; fluorescence Ex 390, Em 460; read-out: HDAC1 IC50
T1 construct: purchased Enzolifesciences BML-AK511
In short: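 Compound incubated with enzyme 60 min at 37° C, then developer 30 min at 37° C; fluorescence read at Ex 390/Em 460. HDAC1 via fluorimetric kit, compounds at 100, 1000 and 10000 nM; HDAC6 human recombinant, compounds at 0.1, 1, 10, 100 and 1000 nM.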

HDAC6 human recombinant = biological target: T2, HDAC6 human recombinant (Homo sapiens, UniProt Q9UBN7); assay: HDAC enzyme activity inhibition (in vitro), HDAC6 assay; type: biochemical; settings: samples at 0.1, 1, 10, 100 and 1000 nM; 37° C. 60 minutes; fluorescence Ex 390, Em 460; read-out: HDAC6 IC50
T2 construct: purchased Calbiochem 382180
T2 sequence (Q9UBN7 1-1215): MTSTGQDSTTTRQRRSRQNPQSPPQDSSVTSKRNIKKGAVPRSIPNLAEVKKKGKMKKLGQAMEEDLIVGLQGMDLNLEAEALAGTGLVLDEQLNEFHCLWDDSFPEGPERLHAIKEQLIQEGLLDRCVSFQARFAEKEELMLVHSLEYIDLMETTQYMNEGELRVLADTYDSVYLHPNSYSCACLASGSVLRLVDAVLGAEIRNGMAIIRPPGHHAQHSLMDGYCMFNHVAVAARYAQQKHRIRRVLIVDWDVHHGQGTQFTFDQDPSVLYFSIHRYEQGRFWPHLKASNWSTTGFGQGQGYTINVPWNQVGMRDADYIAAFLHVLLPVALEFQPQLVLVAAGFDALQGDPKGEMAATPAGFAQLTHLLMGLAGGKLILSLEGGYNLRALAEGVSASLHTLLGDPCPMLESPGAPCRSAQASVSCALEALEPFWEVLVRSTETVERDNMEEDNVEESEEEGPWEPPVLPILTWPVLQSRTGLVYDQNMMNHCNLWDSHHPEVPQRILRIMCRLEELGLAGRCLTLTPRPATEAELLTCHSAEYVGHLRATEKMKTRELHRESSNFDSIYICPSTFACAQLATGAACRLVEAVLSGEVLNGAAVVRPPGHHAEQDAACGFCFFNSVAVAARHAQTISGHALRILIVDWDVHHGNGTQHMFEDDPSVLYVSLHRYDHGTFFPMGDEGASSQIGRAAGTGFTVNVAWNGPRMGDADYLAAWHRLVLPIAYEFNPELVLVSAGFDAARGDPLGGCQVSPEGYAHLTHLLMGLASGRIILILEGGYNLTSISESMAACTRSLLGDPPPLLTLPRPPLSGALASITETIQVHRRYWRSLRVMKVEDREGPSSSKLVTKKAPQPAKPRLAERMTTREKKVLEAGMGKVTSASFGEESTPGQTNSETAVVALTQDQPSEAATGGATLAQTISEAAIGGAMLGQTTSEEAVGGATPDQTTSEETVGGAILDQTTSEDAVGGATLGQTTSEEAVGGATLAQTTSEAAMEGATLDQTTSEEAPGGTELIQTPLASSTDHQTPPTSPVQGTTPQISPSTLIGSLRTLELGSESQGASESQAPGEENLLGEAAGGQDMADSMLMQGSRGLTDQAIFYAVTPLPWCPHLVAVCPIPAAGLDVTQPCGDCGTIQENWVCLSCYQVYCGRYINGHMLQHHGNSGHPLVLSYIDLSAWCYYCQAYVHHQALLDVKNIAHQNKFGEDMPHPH
In short: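 HDAC6 human recombinant enzyme with fluorimetric substrate; […]. Reaction 60 min at 37° C, then developer 30 min at 37° C; fluorescence read at Ex 390/Em 460.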

T1 sequence (Q13547 whole entry): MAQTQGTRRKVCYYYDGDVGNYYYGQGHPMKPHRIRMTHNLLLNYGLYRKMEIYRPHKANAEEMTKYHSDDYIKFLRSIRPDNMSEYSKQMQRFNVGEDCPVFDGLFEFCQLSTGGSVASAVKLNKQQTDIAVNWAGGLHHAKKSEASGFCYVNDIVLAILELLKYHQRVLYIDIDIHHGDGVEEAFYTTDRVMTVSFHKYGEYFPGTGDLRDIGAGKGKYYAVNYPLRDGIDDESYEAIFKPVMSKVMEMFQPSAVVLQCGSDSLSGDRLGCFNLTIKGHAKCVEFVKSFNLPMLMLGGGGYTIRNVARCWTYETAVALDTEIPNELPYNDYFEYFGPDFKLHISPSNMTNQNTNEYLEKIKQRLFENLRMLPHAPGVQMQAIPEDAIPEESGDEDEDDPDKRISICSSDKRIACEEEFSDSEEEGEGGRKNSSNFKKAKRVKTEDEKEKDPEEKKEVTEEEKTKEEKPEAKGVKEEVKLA

Row | Compound | IC50 (HDAC1) [µM] | IC50 (HDAC6 human recombinant) [nM]
1 | O=c1n(Cc2ccc(-c3nnc(C(F)F)o3)cn2)c2cc(F)c(-c3cccnc3)cc2n1CC1CCN(C2COC2)CC1 [Compound 290, 1-((5-(5-(difluoromethyl)-1,3,4-oxadiazole-2-yl)pyridine-2-yl)methyl)-6-fluoro-3-((1-(oxetan-3-yl)piperidine-4-yl)methyl)-5-(pyridine-3-yl)-1,3-dihydro-2H-benzo[d]imidazole-2-one] | > 10 | 7
2 | O=c1n(Cc2ccc(-c3nnc(C(F)F)o3)cn2)c2cc(F)c(-c3ccncc3)cc2n1CC1CCN(C2COC2)CC1 [Compound 291, 1-((5-(5-(difluoromethyl)-1,3,4-oxadiazole-2-yl)pyridine-2-yl)methyl)-6-fluoro-3-((1-(oxetan-3-yl)piperidine-4-yl)methyl)-5-(pyridine-4-yl)-1,3-dihydro-2H-benzo[d]imidazole-2-one] | > 10 | 9
3 | O=c1n(Cc2ccc(-c3nnc(C(F)F)o3)cn2)c2cc(F)c(-c3cn[nH]c3)cc2n1CC1CCN(C2COC2)CC1 [Compound 292, 1-((5-(5-(difluoromethyl)-1,3,4-oxadiazole-2-yl)pyridine-2-yl)methyl)-6-fluoro-3-((1-(oxetan-3-yl)piperidine-4-yl)methyl)-5-(1H-pyrazole-4-yl)-1,3-dihydro-2H-benzo[d]imidazole-2-one] | > 10 | 3
4 | O=c1n(Cc2ccc(-c3nnc(C(F)F)o3)cn2)c2cc(F)c(-c3cccnc3)cc2n1[C@@H]1CCCN(C2COC2)C1 [Compound 293, (R)-1-((5-(5-(difluoromethyl)-1,3,4-oxadiazole-2-yl)pyridine-2-yl)methyl)-6-fluoro-3-(1-(oxetan-3-yl)piperidine-3-yl)-5-(pyridine-3-yl)-1,3-dihydro-2H-benzo[d]imidazole-2-one] | > 10 | 8
5 | O=c1n(Cc2ccc(-c3nnc(C(F)F)o3)cn2)c2cc(F)c(-c3ccncc3)cc2n1[C@@H]1CCCN(C2COC2)C1 [Compound 294, (R)-1-((5-(5-(difluoromethyl)-1,3,4-oxadiazole-2-yl)pyridine-2-yl)methyl)-6-fluoro-3-(1-(oxetan-3-yl)piperidine-3-yl)-5-(pyridine-4-yl)-1,3-dihydro-2H-benzo[d]imidazole-2-one] | > 10 | 11
6 | O=c1n(Cc2ccc(-c3nnc(C(F)F)o3)cn2)c2cc(F)c(-c3cccc4[nH]ccc34)cc2n1[C@@H]1CCCN(C2COC2)C1 [Compound 295, (R)-1-((5-(5-(difluoromethyl)-1,3,4-oxadiazole-2-yl)pyridine-2-yl)methyl)-6-fluoro-5-(1H-indole-4-yl)-3-(1-(oxetan-3-yl)piperidine-3-yl)-1,3-dihydro-2H-benzo[d]imidazole-2-one] | > 10 | 10
7 | O=c1n(Cc2ccc(-c3nnc(C(F)F)o3)cn2)c2cc(F)c(-c3cn[nH]c3)cc2n1[C@@H]1CCCN(C2COC2)C1 [Compound 296, (R)-1-((5-(5-(difluoromethyl)-1,3,4-oxadiazole-2-yl)pyridine-2-yl)methyl)-6-fluoro-3-(1-(oxetan-3-yl)piperidine-3-yl)-5-(1H-pyrazole-4-yl)-1,3-dihydro-2H-benzo[d]imidazole-2-one] | > 10 | 5

The remaining lines, values ahead:

Row | IC50 (HDAC1) [µM] | IC50 (HDAC6 human recombinant) [nM] | Compound
8 | > 10 | 10 | O=c1n(Cc2ccc(-c3nnc(C(F)F)o3)cn2)c2cc(F)c(-c3cccnc3)cc2n1[C@H]1CCCN(C2COC2)C1 [Compound 297, (S)-1-((5-(5-(difluoromethyl)-1,3,4-oxadiazole-2-yl)pyridine-2-yl)methyl)-6-fluoro-3-(1-(oxetan-3-yl)piperidine-3-yl)-5-(pyridine-3-yl)-1,3-dihydro-2H-benzo[d]imidazole-2-one]
9 | > 10 | 9 | CCN1CCC[C@H](n2c(=O)n(Cc3ccc(-c4nnc(C(F)F)o4)cn3)c3cc(F)c(-c4cccnc4)cc32)C1 [Compound 298, (S)-1-((5-(5-(difluoromethyl)-1,3,4-oxadiazole-2-yl)pyridine-2-yl)methyl)-3-(1-ethylpiperidine-3-yl)-6-fluoro-5-(pyridine-3-yl)-1,3-dihydro-2H-benzo[d]imidazole-2-one]
10 | > 10 | 13 | O=c1n(Cc2ccc(-c3nnc(C(F)F)o3)cn2)c2cc(F)c(-c3ccncc3)cc2n1[C@H]1CCCN(C2COC2)C1 [Compound 299, (S)-1-((5-(5-(difluoromethyl)-1,3,4-oxadiazole-2-yl)pyridine-2-yl)methyl)-6-fluoro-3-(1-(oxetan-3-yl)piperidine-3-yl)-5-(pyridine-4-yl)-1,3-dihydro-2H-benzo[d]imidazole-2-one]
11 | > 10 | 13 | CCN1CCC[C@H](n2c(=O)n(Cc3ccc(-c4nnc(C(F)F)o4)cn3)c3cc(F)c(-c4ccncc4)cc32)C1 [Compound 300, (S)-1-((5-(5-(difluoromethyl)-1,3,4-oxadiazole-2-yl)pyridine-2-yl)methyl)-3-(1-ethylpiperidine-3-yl)-6-fluoro-5-(pyridine-4-yl)-1,3-dihydro-2H-benzo[d]imidazole-2-one]
12 | > 10 | 29 | O=c1n(Cc2ccc(-c3nnc(C(F)F)o3)cn2)c2cc(F)ccc2n1CC1CCN(C2COC2)CC1 [Compound 301, 3-((5-(5-(difluoromethyl)-1,3,4-oxadiazole-2-yl)pyridine-2-yl)methyl)-5-fluoro-1-((1-(oxetan-3-yl)piperidine-4-yl)methyl)-1,3-dihydro-2H-benzo[d]imidazole-2-one]
13 | > 10 | 38 | O=c1n(Cc2ccc(-c3nnc(C(F)F)o3)cn2)c2cc(F)ccc2n1C1CN(C2COC2)C1 [Compound 302, 3-((5-(5-(difluoromethyl)-1,3,4-oxadiazole-2-yl)pyridine-2-yl)methyl)-5-fluoro-1-(1-(oxetan-3-yl)azetidine-3-yl)-1,3-dihydro-2H-benzo[d]imidazole-2-one]
14 | > 10 | 29 | Cn1c(=O)n(Cc2ccc(-c3nnc(C(F)F)o3)cn2)c2cc(F)c(N3CCN(Cc4cccnc4)CC3)cc21 [Compound 303, 1-((5-(5-(difluoromethyl)-1,3,4-oxadiazole-2-yl)pyridine-2-yl)methyl)-6-fluoro-3-methy 1-5-(4-(pyridine-3-ylmethyl)piperazine-1-yl)-1,3-dihydro-2H-benzo[d]imidazole-2-one]
15 | > 10 | 37 | O=c1oc2cc(-c3cccnc3)ccc2n1Cc1ccc(-c2nnc(C(F)F)o2)cn1 [Compound 304, 3-((5-(5-(difluoromethyl)-1,3,4-oxadiazole-2-yl)pyridine-2-yl)methyl)-6-(pyridine-3-yl) benzo[d]oxazole-2(3H)-one]
16 | > 10 | 50 | O=c1oc2cc(-c3ccncc3)ccc2n1Cc1ccc(-c2nnc(C(F)F)o2)cn1 [Compound 305, 3-((5-(5-(difluoromethyl)-1,3,4-oxadiazole-2-yl)pyridine-2-yl)methyl)-6-(pyridine-4-yl) benzo[d]oxazole-2(3H)-one]
17 | > 10 | 34 | O=c1oc2cc(-c3cccc4[nH]ccc34)ccc2n1Cc1ccc(-c2nnc(C(F)F)o2)cn1 [Compound 306, 3-((5-(5-(difluoromethyl)-1,3,4-oxadiazole-2-yl)pyridine-2-yl)methyl)-6-(1H-indole-4-yl)benzo[d]oxazole-2(3H)-one]
18 | > 10 | 399 | CC(C)(C)OC(=O)N1CCC(c2ccc3c(c2)oc(=O)n3Cc2ccc(-c3nnc(C(F)F)o3)cn2)CC1 [Compound 307, tert-butyl 4-(3-((5-(5-(difluoromethyl)-1,3,4-oxadiazole-2-yl)pyridine-2-yl)methyl)-2-oxo-2,3-dihydrobenzo[d]oxazole-6-yl)piperidine-1-carboxylate]
